Molecules are shown by their SMILES. Where “and” joins values, the source holds several entries; their conditions need not be identical. Identical values can stand only once.

The experiment relates to M. tuberculosis resistant mutant (lysS S491 insertion). Type of experiment: cell-based, Mycobacterium tuberculosis.

For the compound `Nc1cc2c(c(F)n1)C(=O)N(C1CCCCC1)C2` [Compound 2], the “Mutant (S491)MIC” value was 0.11 µM and 0.095 µM; the “Mutant (S491)MIC, Ave” value was 0.10 µM.
In the case of `NNC(=O)c1ccncc1` [isoniazid], the “fold resistance of the resistant mutant strain compared to wild-type H37Rv (MIC)” value is reported as “equivalent sensitivity”.

The values are drawn from PMC9552147 (Nature Communications, 2022).
